Results published in publication PMC10600239, “Selective MCL-1 inhibitor ABBV-467 is efficacious in tumor models but is associated with cardiac troponin increases in patients” (Communications Medicine, 2023).

Columns and labels:
[1] = Anesthetized dog cardiovascular safety pharmacology; format: in vivo; settings: anesthetized beagle, IV 1, 3 and 10 mg/kg
Description: ABBV-467 was profiled in safety pharmacology studies in anesthetized (non-Good Laboratory Practice [GLP]) and telemetry-instrumented conscious (GLP) dog cardiovascular assays (Supplementary Table S6).
Supplementary Table S6: Maj or findings in safety pharmac ology cardiovascular studies c onduc ted with ABBV- […]
Species/Strain Route of Concentrations Sex and N Results
Administration or Doses per Group […]
Anesthetized IV 1, 3, and Male No effects up to a plasma concentration dog 10 m g/ k gN=4 o f 16 .83 µg/mL on […]
aged 8-12 months • Heart rate
• Systemic vascular resistance
At 67 .23 mg/m L, an increase in heart rate and decrease in systemic vascular
Conscious IV 0, 0.3, 1, and Male No effects on blood pressure, heart dog 3 mg/kg N=5–6a rate, or ECG parameters at any dose beagle (plasma concentration of 6.53 µg/mL at (aged 8-12 months 3-m g/ k g do s e )
ECG, electrocardiogram; IC50, half maximal inhibitory concentration; IV, intravenous; QTcV, QT interval correct ed accor ding to the Van de Water formula. No animals or data were excl uded from analysis . […] Healthy dogs, as determined by veterinary physical examination and clinical pathology, were selected for study based on availability without explicit randomization. […] Power analysis has shown a group size of 6 can statistically detect an approximately 20 % alteration in measured parameters w ith α =0.0 5. […]

[2] = Phase 1 first-in-human study (NCT04178902): efficacy (IMWG criteria, immunoglobulin, free light chain); format: in vivo; settings: for Kappa Lt Chain,Free/Lambda Lt Chain,Free / Immunoglobulin G: patient; for Kappa Lt Chain,Free/Lambda Lt Chain,Free: normal range 0.22-1.52; for Immunoglobulin G: normal range 5.65-17.65
Description: This FIH study (NCT04178902) for ABBV-467 was a multicenter, open-label, dose-escalation study enrolling patients aged ≥18 years who had R/R MM, with the option to enroll R/R AML once recommended phase 2 dose (RP2D) was established. The study design was originally planned to consist of 2 parts: dose escalation and dose expansion, including a minimum of 6 patients treated during dose escalation at what was ultimately to be declared the RP2D. Patients must have received 3 or more prior lines of therapy including at least 1 or more immunomodulatory agents, 1 or more proteasome inhibitors, and 1 or more anti-CD38 monoclonal antibodies. Other eligibility criteria included: Eastern Cooperative Oncology Group performance status ≤2, measurable disease as defined by International Myeloma Working Group (IMWG) consensus criteria, an echocardiogram with an ejection fraction ≥50%, and adequate hematologic, hepatic, and renal function. The prespecified primary objectives were to characterize the safety and toxicity profiles, to establish the RP2D, and to determine the pharmacokinetic (PK) profile of ABBV-467 monotherapy. Safety evaluations included, but were not limited to, adverse event (AE) monitoring, physical examinations, vital sign measurements, electrocardiogram (ECG), cardiac enzyme monitoring, and clinical laboratory testing (hematology and chemistry) as a measure of safety and tolerability for the entire study duration. Parameters used to determine PK included maximum observed plasma concentration (Cmax), terminal elimination half-life (t1/2), area under the plasma concentration-time curve (AUC) from time 0 to time of last measurable concentration (AUCt), AUC from time 0 to infinity (AUC0-∞), and clearance using non-compartmental methods. Secondary objectives were preliminary evaluation of the efficacy of ABBV-467 in R/R MM and R/R AML. Preliminary efficacy endpoints were overall response rate (ORR), clinical benefit rate (CBR), and duration of response (DOR) as evaluated per adapted IMWG[36] criteria for MM and per adapted International Working Group (IWG)[37] and European Leukemia Net (ELN)[38] criteria for AML.

OCI-AML2 xenografts = assay: OCI-AML2 xenograft efficacy (tumor volume, body weight); settings: for tumor response: for 20 days post-treatment
Description: All animal studies were conducted in accordance with the guidelines approved by the Institutional Animal Care and Use Committees of AbbVie. The research protocol was approved by In Vivo Pharmacology at AbbVie prior to study initiation but was not publicly registered or disclosed. Female C.B-17 SCID-beige mice (AMO-1, OPM-2, NCI-H929, and OCI-AML2 xenografts) and female NSG mice (MV4-11-Red.Fluc systemic) were purchased from Charles River Laboratories (Wilmington, MA). Animals were housed in a light cycle-controlled room with HEPA filtration at 22 °C. Animals had nesting and climbing cage topper as the primary environmental enrichment. Animals were inoculated subcutaneously in the right flank with 5 × 10^6 (AMO-1, OPM-2, NCI-H929, and OCI-AML2) or intravenous (IV) with 5 × 10^6 (MV4-11-Red.Fluc). The inoculation volume (0.2 mL) comprised a 50:50 mixture of cells in growth media and Matrigel (BD Biosciences) for subcutaneous injections and 100% phosphate-buffered saline for IV administration. […] Electronic calipers were used to measure the length and width of each tumor 2 to 3 times per week. Tumor volume was estimated by applying the following equation: volume = length × width^2/2. All groups remained blinded during measurements and dosing; only veterinary staff were aware of group identity. When tumors reached approximately 200 mm^3, mice were randomized by match and distributed into treatment and control groups. All xenograft trials were conducted using 5 to 10 mice per group, and all mice were ear tagged and monitored individually throughout the studies.
For combination studies, all compounds were administered within 30 min of each other.
The tumor growth delay (TGD) percentage was determined as the percentage increase of the median time period for the treatment group to reach an arbitrary tumor volume of 1000 mm^3 relative to the vehicle control group. […] A power analysis was conducted using historical data to determine the number of animals required to yield significance of 0.05 at a 30% difference. There were no animals excluded. Data from experiments in vivo were analyzed using the student’s t-test for TGI values and the Mann–Whitney U test for TGD using Excel and GraphPad Prism. Fisher’s exact test was used to probe significance of differences in response frequency.

[3] = combined with venetoclax and 5-azacitidine

## Cc1c(Cl)c2c(Cl)c(C)c1-c1c(-c3ccc(F)cc3)sc3ncnc(c13)O[C@@H](C(=O)O)Cc1cc(ccc1OCc1ccnc(-c3ccc(OC[C@H]4COCCO4)cc3)n1)OC[C@@H](CN1CCN(C)CC1)O2 [ABBV-467]
[1]
  plasma concentration up to which no effects on blood pressure, heart rate, contractility, systemic vascular resistance, cardiac output, QTcV, QRS, PR interval: 16 .83 µg/mL
[2]; 1 patient, […] dose level
  duration of stable disease: approximately 8 months
[2]; 8 patients with R/R MM
  objective responses: No objective responses
[2]; LBDY 1
  Kappa Lt Chain,Free/Lambda Lt Chain,Free: 31.35 RATIO
  Immunoglobulin G: 28.1 g/L
[2]; LBDY 29
  Kappa Lt Chain,Free/Lambda Lt Chain,Free: 25.56 RATIO
  Immunoglobulin G: 26.9 g/L
[2]; LBDY 57
  Kappa Lt Chain,Free/Lambda Lt Chain,Free: 23.38 RATIO
  Immunoglobulin G: 23.3 g/L
[2]; LBDY 85
  Kappa Lt Chain,Free/Lambda Lt Chain,Free: 6.92 RATIO
  Immunoglobulin G: 28.9 g/L
[2]; LBDY 115
  Kappa Lt Chain,Free/Lambda Lt Chain,Free: 6.82 RATIO
  Immunoglobulin G: 30.6 g/L
[2]; LBDY 143
  Kappa Lt Chain,Free/Lambda Lt Chain,Free: 7.51 RATIO
  Immunoglobulin G: 29.6 g/L
[2]; LBDY 171
  Kappa Lt Chain,Free/Lambda Lt Chain,Free: 8.26 RATIO
  Immunoglobulin G: 24.4 g/L
[2]; LBDY 199
  Kappa Lt Chain,Free/Lambda Lt Chain,Free: 3.99 RATIO
  Immunoglobulin G: 40.2 g/L
[2]; LBDY 227
  Kappa Lt Chain,Free/Lambda Lt Chain,Free: 5.42 RATIO
  Immunoglobulin G: 29.5 g/L
[2]; LBDY 238
  Kappa Lt Chain,Free/Lambda Lt Chain,Free: 8.01 RATIO
  Immunoglobulin G: 32.9 g/L
[2]; LBDY -6
  Kappa Lt Chain,Free/Lambda Lt Chain,Free: 31.47 RATIO
  Immunoglobulin G: 23.8 g/L
OCI-AML2 xenografts; combined with venetoclax
  TGD: > 878%
  TGI: 99%
  tumor response: complete tumor regression in all tumors
OCI-AML2 xenografts; [3]
  TGD: > 878%
  TGI: 99%
  tumor response: complete tumor regression in all tumors
OCI-AML2 xenografts; doublet (with venetoclax)
  animals remaining tumor free at 120 days post-inoculation: 62.5%
OCI-AML2 xenografts; in combination with 5-azacitidine
  sensitivity of OCI-AML2 tumors: resistant
OCI-AML2 xenografts; monotherapy
  sensitivity of OCI-AML2 tumors: resistant
OCI-AML2 xenografts; triplet (with venetoclax and 5-azacitidine)
  animals remaining tumor free at 120 days post-inoculation: 62.5%
